Experimental findings from patent US20230026969A1, “Oligopeptide, Testing Kit Thereof And Medical Composition Thereof” (China Medical University, priority 2019, published 2023) are described below.

The test system of one assay is hPi-GL. As to the kind of experiment: Immunocytofluorescent staining of phage clones on hPi-GL chondrocyte cell line. The assay is classed as cell-based, human. The settings on record: phage clones on fixed hPi-GL cells. Here is the method:
For examination of those phage clones, slide-cultured hPi-GL cells were fixed with 4% paraformaldehyde in PBS at room temperature for 15 mins, washed with PBS and permeabilized with 0.1% Triton X-100 at room temperature for 30 mins, blocked for nonspecific binding with 1% BSA/PBST. The slide-cultured hPi-GL cells were separately incubated with 4×10^8 pfu, 8×10^8 pfu, and […] selected phage clones at 4° C. for 1 hour. After removing the unbound phages by washing, the cells were incubated with anti-M13 mouse mAb (GE Healthcare, Milwaukee, Wis., USA) as the primary antibody and R-Phycoerythrin-AffiniPure F(ab′)2 fragment goat anti-mouse IgG (Jackson ImmunoResearch Inc.) as the secondary antibody at room temperature for 1 hour, respectively. Then, washed with PBST, and counterstained with Hoechst 33258 (1 μg/ml; Sigma-Aldrich) at room temperature for 10 mins. The cells were analyzed for phage binding and localization by fluorescence using confocal microscopy (Zeiss LSM 700).

Assay [1] has as its system OA cartilage. As to the kind of experiment: Immunostaining of human OA tissue sections with phage clones: cartilage. The settings on record: for binding activity to cartilage (DAB intensity): HRP-labeled phage clones. Type of assay: binding. From the text:
(§1) To examine localization of the targeting phages bound to articular tissues, human OA cartilage specimens were used for examination. Paraffin-embedded human OA tissue, synovium, and meniscus sections were retrieved from specimens of human OA surgical treatment under the approval of the Institutional Review Board of China Medical University Hospital (IRB no. CMUH108-REC1-046 and T-CMU-23728). Written informed consent was obtained, and all human tissue samples were coded for anonymity. All sections were dried, deparaffinized and rehydrated by standard protocols, and subsequently incubated with C5-87, C5-66, C5-83, C5-91, C5-24, E5-8, and C5-46 phage clones, or the control phage (5×10^8 pfu/μl). After washing, the sections were treated with anti-M13 mouse mAb (GE Healthcare) for 1 hour at room temperature. Following several washing steps, a biotin-free super sensitive polymer-HRP detection system (Biogenex, Fremont, Calif., USA) was used to detect immunoreactivity. The slides were lightly counterstained with hematoxylin, mounted with Aquatex (Merck, Darmstadt, Germany), and examined by light microscopy.

The subject of a further assay is meniscus. Briefly: Immunostaining of human OA tissue sections with phage clones: meniscus. Type of assay: binding. The settings on record: HRP-labeled phage clones.
Description: as §1

The next assay concerns synovium. Briefly: Immunostaining of human OA tissue sections with phage clones: synovium. The assay is classed as binding. The settings on record: HRP-labeled phage clones.
Description: as §1

In assay [2] the test system is OA cartilage. Briefly: Intravital two-photon imaging of rhodamine-labeled peptides injected into rat joints. Type of assay: in vivo. The note with it: for rhodamine fluorescence (red dots) in cartilage: intra-articular, two-photon microscopy. As to the method: The OA in rat model was established as previous described with slightly modification. In brief, the male SD rats≅300 grams in weight were used in this study. All animal experiments were approved by the China Medical University Committee for the Use and Care of Animals. Rats were kept under standard laboratory conditions (temperature 24° C., 12 h light-dark cycle), fed standard diet and drank tap water. Rats were anesthetized with 2.5% isofluorane (Abott, USA) in 70 ml/min flow rate before every injection. Rat joint OA was induced in the right knees in each group by injecting 0.2 ml of 4% papain solution (Sigma-Aldrich, USA) with 0.1 ml of 0.03 M cysteine (Sigma-Aldrich, USA) as activator. Same amount of saline was injected into the left knees in each group. Injection was repeated on the fourth and seventh days, respectively, and two weeks after the last papain injection, rat knees were removed for histological analysis to confirm the formation of OA. The established OA model in rats was further used in the following experiments for intraarticular injection.
The rhodamine-labeled C5-24 and scrambled peptides were separately injected into rat joints without (control) or with enzyme-induced OA. The C5-24 and scrambled peptides were chemically synthesized as accordingly (ABI, USA), modified with Biotin-PEG2-Iodoacetyl bridge linker (Thermo Fisher Scientific, USA) in HEPES buffer pH 8.0 through click reaction, further linked with avidin labeled rhodamine (Jacksonlmmuno, USA) and subjected to dialysis in ddH2O in M.W. 4K cut-off to remove the unlabeled rhodamine, further lyophilized and stored in −20° C. Aliquots of 1 μg rhodamine-labeled peptides in 40 μl PBS were used for intraarticular injection with using 30 G syringes.
Rat Knees were removed at 1-day post-injection, and both femoral condyles and tibias were cleaned thoroughly, immersed in PBS and sophisticatedly attached on 3.5 cm dish for 2-photon microscopic observation. The microscope system was operated using a near-infrared femtosecond laser (Mira 900, Coherent, USA) at the central wavelength of 810 nm, 76 MHz pulse repetition rate, and 200 fs pulse width for imaging. […] Thus, the wavelength of SHG from collagen fibers is 405 nm, while the TPEF from collagen, elastin, FAD, and NADH is approximately ranging from 450 to 650 nm. All images were obtained by a laser scanning unit (Fluoview 300, Olympus, Japan), a pair of two objective lenses for both lasers focusing and collection of photons (UPlanSApo 20×/0.75, Olympus, Japan), and two photomultiplier tubes respectively for SHG and TPEF detection (R3896, Hamamatsu, Japan). SHG and TPEF were filtered from the intense excitation laser background by a combination of band-pass filter (FF01-405/10, Semrock, USA) and color glass (BG39, Schott, Germany). And, then splitted by a dichroic mirror (FF435-Di01, Semrock, USA) and forward detected. […] Only the extinction ratio of linear polarization larger than 50:1 and the ellipticity of circular polarization (Imax/Imin) less than 1.1 after the focusing objective lens can then be used for the following two-photon imaging. The acquired images were mainly processed and analyzed with ImageJ/FiJi software (National Institutes of Health, Bethesda, Md., USA).

Setting [3] is: rhodamine-labeled peptide, OA cartilage.
[4] abbreviates: rhodamine-labeled peptide, control cartilage.

With “D A Y W H P V W V H D P (DAYWHPVWVHDP; binding to collagen XII; DOMAIN (4)..(8)) [C5-91, 2, from phage display]”, the “binding to hPi-GL (immunocytofluorescent staining, M13-PE)” value in the assay on hPi-GL was “specific and remarkable binding”. Moreover, the “binding activity to cartilage (DAB intensity)” value in the assay on OA cartilage [1] is on record as “superior binding activity”. The “binding activity to the meniscus (DAB intensity)” value with meniscus is on record as “no binding activity”. The “binding activity to the synovium (DAB intensity)” value in the assay on synovium is “no binding activity”.

On to “D L Q Y W Y P I W D T H (DLQYWYPIWDTH; binding to collagen XII; DOMAIN (5)..(9); DOMAIN (10)..(12)) [C5-24, 1, from phage display]”, for which, in the assay on hPi-GL, the “binding to hPi-GL (immunocytofluorescent staining, M13-PE)” value is “specific and remarkable binding”. Also, in the assay on OA cartilage [1], the “specificity for targeting the territorial region of OA cartilage” value is recorded as “best specificity” and the “binding activity to cartilage (DAB intensity)” value is “superior binding activity”. For the same substance, the “binding activity to the meniscus (DAB intensity)” value in the assay on meniscus was “no binding activity”. Moreover, the “binding activity to the synovium (DAB intensity)” value in the assay on synovium was “no binding activity”. Besides, the “overall fluorescent peptides binding area, OA vs control cartilage” value in the assay on OA cartilage [2] (all slices, FIG. 1b) was “significant difference”. For the same substance, in the assay on OA cartilage [2] (setting [3]), the “depth reached in the OA cartilage (z-axial plane)” value is reported as “at least 50 μm” and the “rhodamine fluorescence (red dots) in cartilage” value (shortened to “rhodamine fluorescence”) is “red dots were observed”. For the same substance, the “rhodamine fluorescence” value in the assay with OA cartilage [2] (setting [4]) is “sparse red dots”.

Consider “DYLWQYPDITWH [scrambled peptide, contains all the same amino acids as the original peptide but in new random order, reference compound]”, for which the “rhodamine fluorescence” value in the assay on OA cartilage [2] (setting [3]) and in the assay with OA cartilage [2] (setting [4]) was “sparse red dots” in each case. Also, in the assay with OA cartilage [2] (scrambled control peptide), the “ability to bind to OA cartilage” value was “not able to bind to OA cartilage”.
